Experimental data published in patent US20240076626A1, “HYDROGEN PEROXIDE EVOLVED HOST CELL” (MedImmune Limited, priority 2020, published 2024).

Key:
H2O2 evolved host cells [1] = assay: ChemStress assay, survival with prooxidant chemical compounds (PrestoBlue); format: cell-based, Chinese hamster; conditions: 72 hours growth in the presence of the stressor
Description: To confirm the H2O2 evolved host cell's ability to resist oxidative stress, the cells were evaluated for survival in response to several prooxidant chemical compounds selected to mimic bioreactor stressors: […] These chemicals affect a diverse subset of intracellular redox pathways such as those involved in GSH biosynthesis and turnover (BSO and MS) (Lee et al. (1992) “Effects of buthionine sulfoximine treatment on cellular glutathione levels and cytotoxicities of cisplatin, carboplatin and radiation in human stomach and ovarian cancer cell lines”. Korean J Intern Med. 7(2):111-7; Dunning et al. (2013) “Glutathione and antioxidant enzymes serve complementary roles in protecting activated hepatic stellate cells against hydrogen peroxide-induced cell death”. Biochim Biophys Acta. 1832(12):2027-34), intracellular ROS generation (MSB) (Beck et al. (2011) “Ascorbate/menadione-induced oxidative stress kills cancer cells that express normal or mutated forms of the oncogenic protein Bcr-Abl. An in vitro and in vivo mechanistic study”. […] J Neurosci Res. 64(6):646-53). Chem stress assays were performed according to the manufacturer's instructions (ChemStress®, […], Ireland). In brief, CHO or H2O2 evolved host cells were seeded into […] ChemStress plates (ChemStress®, […], Ireland) at 18,000 cells/well in 90 μl proprietary medium supplemented with 6 mM L-glutamine. A control well was incubated with medium alone. Plates were incubated for 72-hours in a static incubator at 36.5° C., 6% CO2. Following this, 10 μl of neat PrestoBlue dye (Thermo Fisher Scientific, UK) was added to all wells before plates were mixed for 20 seconds and incubated for a further 30 minutes at 36.5° C., 6% CO2. Plates were analyzed using a PHERAstar plate reader (BMG LABTECH, Ortenberg, Germany) with preconfigured protocols (excitation 560 nm, emission 590 nm). Data was analyzed, using the […] software ([…], Ireland).

H2O2 evolved host cells [2] = assay: cells; conditions: Cricetulus griseus
Description: The H2O2 evolved host and CHO control host were passaged to 90 PDL and 7 PDL respectively in CD-CHO supplemented with 6 mM glutamine after which both hosts were re-challenged with 37 mM H2O2 and viabilities recorded (viability measured on days 1, 2, 4, 7, 10, 11 and 12)
Specifically, CHO-K1 cells adapted to grow in suspension culture (CHO Control) were revived in chemically-defined (CD) CHO medium (Life technologies, Paisley, UK) supplemented with 6 mM L-glutamine (Life technologies, Paisley, UK) and passaged three times at 0.2×10^6 cells/ml in a 30 ml culture volume. When cells reached 99% viability, they were incubated for 1 hour with 14 mM H2O2 (Sigma-Aldrich, UK) before centrifugation at 130 g for 5 minutes and resuspended in 30 ml fresh CD CHO supplemented with 6 mM L-glutamine. CHO cells were left to recover until cells reached 70% viability. This process was repeated an additional three times resulting in a total of four exposures to 14 mM H2O2, in which cells gradually recovered over a period of 10-20 days, with the medium being replenished periodically, until cells reached 70% viability. The cells were then subjected to one round of 18.5 mM H2O2 treatment following the method above until cells reached 90% viability. […]

H2O2 evolved host B = assay: Survival of BisAb-expressing pools in the presence of MSB (Vi-Cell viability); format: cell-based, Chinese hamster; conditions: 6 μM MSB, up to 72 hours, cells expressing BisAb B, versus H2O treated control
Description: (§1) Expressing pools were compared for survival in the presence of the widely used prooxidant, menadione sodium bisulphite (MSB). Briefly, CHO Control or H2O2 evolved host cells expressing BisAbs A or BisAb B were seeded at 0.3×10^6 cells/ml into 30 ml of proprietary medium supplemented with 50 μM MSX. A total of 6 μM Menadione Sodium Bisulfite (MSB) (Sigma-Aldrich, UK) or water was added to test and control cultures, respectively. Cells were assessed for viability and viable cell density (VCD) using a Vi-Cell XR Cell Viability Analyser (Beckman Coulter, USA) at 24, 48 and 72 hours post addition of MSB or water.

H2O2 evolved host A = assay: as above; format: cell-based, Chinese hamster; conditions: 6 μM MSB, up to 72 hours, cells expressing BisAb A, versus H2O treated control
Description: as §1

Row | SMILES | viability of H2O2 evolved host cells compared to CHO control cells (H2O2 evolved host cells [1]) | viability at 37000 µM (H2O2 evolved host cells [2]) | viability (H2O2 evolved host B) | viability (H2O2 evolved host A)
1 | CCCCS(=N)(=O)CCC(N)C(=O)O (stereo not shown) [BSO, Buthionine Sulfoximine] | significantly improved viabilities |  |  | 
2 | [Cl][Co][Cl] [CoCl, Cobalt chloride] | significantly improved viabilities |  |  | 
3 | OO [H2O2, hydrogen peroxide] |  | ~50% |  | 
4 | O=C(O)CC(S)C(=O)O (stereo not shown) [MS, Mercaptosuccinic Acid] | significantly improved viabilities |  |  | 
5 | CC1(S(=O)(=O)[O-])CC(=O)c2ccccc2C1=O.[Na+] (stereo not shown) [MSB, Menadione Sodium Bisulphite] | significantly improved viabilities |  | comparable with H2O treated controls | comparable with H2O treated controls
